Laboratory results taken from patent publication US8440725B2, “Synergistic preparations based on mixtures of glycerol ether with aromatic alcohol for controlling mycobacteria” (Air Liquide Sante (International), priority 2002, dated 2013).

System: Mycobacterium terrae (ATCC15755)
Assay: Quantitative suspension test Mycobacterium terrae without load, room temperature
Type: cell-based
Conditions: 0.1% added to 30% strength ethanol, exposure time 60 minutes
Description: Various aqueous disinfectants were tested with respect to their activity towards Mycobacterium terrae, cell count 1 to 3×10^9 in a quantitative suspension test without load. The following reduction factors were measured, a reduction factor>5 corresponding to a sufficient Tb activity. For this various amounts of ethanol were added to aqueous active compound solutions and after exposure for 15, 30 and 60 minutes were tested. For testing the tuberculocidal activity, the quantitative suspension test Mycobacterium terrae (ATCC15755) was used in accordance with the Deutsche Gesellscaft für Hygiene and Mikrobiologie [German Society for Hygiene and Microbiology] of 30 Apr. 1997 (Hyg. Med. 22, 1997, issue 6, pages 278ff.).

SMILES: CCCCC(CC)COCC(O)CO (stereo not shown) [SC 50, 1-(2-ethylhexyl) glycerol ether]
- Tb activity (reduction factor>5 = sufficient): sufficiently Tb active
